# Measurements from patent publication US20240197713A1, “LFA-1 ANTAGONISTS FOR TREATING INFLAMMATORY BOWEL DIESEASE” (VivaVision Biotech, Inc, priority 2022, published 2024).
# Test system: oxazolone-induced colitis mice
# Experiment: Oxazolone-induced acute colitis in mice for ulcerative colitis
# Format: in vivo, Balb/c mice
# Conditions: compound 1 5 mg/kg, tofacitinib 10 mg/kg; for bodyweight loss (bodyweight change, FIG. 1): PO BID 5 days (Days 4 to 8 after sensitization) in 0.5% CMC-Na; for DAI score (disease activity index, FIG. 2): PO BID 5 days, scored per Table 2; for colon density (FIG. 5) / colon length (FIG. 4) / colon weight (FIG. 3): colon collected Day 9, PO BID 5 days
# Protocol: Compound 1 (i.e., lifitegrast) was evaluated in an oxazolone-induced colitis murine model, along with tofacitinib. Boirivant et al., J. Exp. Med. 1998, 188, 1929-39. Balb/c mice were randomly divided into 4 groups according to Table 1: 2 treatment groups (Treatment Groups), 1 vehicle group (Vehicle Group), and 1 sham group (Sham Group). The mice in Treatment and Vehicle Groups were sensitized with 200 μL of 2% oxazolone in acetone and olive oil (1:4), followed by injection of 100 μL of 1.5% oxazolone into the rectum of each mouse on Day 5 after sensitization. The mice in Sham Group were sensitized with 200 μL of a mixture of acetone and olive oil (1:4) without oxazolone, followed by injection of 100 μL of 50% ethanol/water into the rectum of each mouse on Day 5 after sensitization. Before the injection into the rectum, each mouse was anesthetized intraperitoneally with tribromoethanol (0.3 mL, 1.25%). From Days 4 to 8 after sensitization, the mice in Sham Group and Vehicle Group were each given 0.5% CMC-Na by gavage, and the mice in Treatment Groups were each given by gavage tofacitinib or compound 1 in 0.5% CMC-Na, respectively, according to the dosing schedule shown in Table 1.
# The bodyweight of each mouse was measured daily. From Day 4 after sensitization, the fecal property and occult blood as determined with a fecal occult blood test (FOBT) of each mouse were measured daily to calculate a disease activity index (DAI) according to Table 2.
# On Day 9 after sensitization, each mouse was euthanized and blood was collected from the heart. A serum was prepared and frozen for the determination of inflammatory factors.
# The colon of each mouse was collected and photographed, and the colon length was measured and weighed after the removal of the content of the colon. A part of each colon collected was fixed using the Swiss roll technique in neutral paraformaldehyde for pathological scoring (Table 3) as described in Bialkowska et al., J. Vis. Exp. 2016, 113, e54161. The rest of the colon mucosa of each mouse was scraped and frozen for the determination of inflammatory factors.
Compound,"bodyweight loss (bodyweight change, FIG. 1)","DAI score (disease activity index, FIG. 2)",colon density (FIG. 5),colon length (FIG. 4),colon weight (FIG. 3)
"CS(=O)(=O)c1cccc(C[C@H](NC(=O)c2c(Cl)cc3c(c2Cl)CCN(C(=O)c2ccc4ccoc4c2)C3)C(=O)O)c1 [compound 1, (S)-2-(2-(benzofuran-6-carbonyl)-5,7-dichloro-1,2,3,4-tetrahydroisoquinoline-6-carboxamido)-3-(3-(methylsulfonyl)phenyl)propanoic acid]",slowed the bodyweight loss,improved the DAI score,able to reverse the disease effects,able to reverse the disease effects,able to reverse the disease effects
C[C@@H]1CCN(C(=O)CC#N)C[C@@H]1N(C)c1ncnc2[nH]ccc12 [tofacitinib],slowed the bodyweight loss,improved the DAI score,able to reverse the disease effects,able to reverse the disease effects,able to reverse the disease effects
